Assay results: patent US20190337899A1, “QUINOLINE SULFONAMIDES USEFUL TO TREAT DISEASE” (priority 2015, published 2019)
pEC50: −log10 of the molar value.

Assays:
SH-SY5Y cells = test: Cell rescue assay: protection against β-amyloid-induced cell toxicity; format: cell-based; conditions: Homo sapiens, 96 h, 7.5 uM compound, AB1-42 at 10 uM, 4 days, OD 490 nm, read-out: Cell Survival % (cell rescue)
Protocol: Protection against β-amyloid-induced cell toxicity. Chonpathompikunlert et al. Eu. J. Pharmacol. 2011, 650, 544-549. Human SH-SY5Y cells are suspended in media containing 2% FBS and 2X Gentamicin. Transfer 100 ul/well culture to 96-well plate (20,000 cells/well; passage #5) and incubate overnight. Prepare compound samples at 30 uM. Add 50 ul of the samples to the cells [[…]] and incubate 3 hours. Make stock of 40 uM AB1-42 peptide in assay media. Transfer 50 ul/well to cells/compounds in assay plate. The final assay volume is 200 ul/well, containing 2% FBS, 2× Gentamicin, 7.5 uM compound and AB1-42 at 10 uM. Incubate for 4 days then add 20 µl of Promega Substrate Cell Titer 96 Aqueous One Solution Reagent to each well. Incubate 37° C. and read OD at 490 nm. The results are summarized in Table 3, where A represents a value greater than 50% cell rescue, B represents a value greater than 10% and less than or equal to 50% cell rescue, and C represents a value greater than 1% and less than or equal to 10% cell rescue.

CSM14.1 neuronal cells = test: Cell survival assay (thapsigargin-treated CSM14.1 neuronal cells, CellTiter-Glo); format: cell-based; conditions: compound 2 hrs before about 15 μM thapsigargin, overnight, CellTiter-Glo luminescence
Protocol: CSM14.1 neuronal cells were maintained in Complete Medium at 32 ° C.; wherein the Complete Medium contained Dulbecco's modified eagle medium (DMEM) with 10% fetal bovine serum (FSB), 1% L-glutamine, 100 IU/mL penicillin, and 100 μg/mL streptomycin. The cells were recovered from cultures by trypsinization and then seeded in 384 well plates (Greiner #781098) at a concentration of 1,000 cells/well in 20 μL of DMEM Assay Medium, wherein the DMEM Assay Medium contained 2% FBS, 100 IU/mL penicillin, and 100 μg/mL streptomycin. Seeding was performed using a MultiDrop Combi reagent broadcaster. The plates were incubated overnight at 32° C. A test compound was prepared by 2-fold serial dilution in 100% DMSO using a BIOMEK® 2000 liquid handler (Beckman Coulter). A dose-response curve containing 10 concentrations of the test compound was obtained. Using a BIOMEK® FX liquid handler (Beckman Coulter), 2.5 μL of the test compound was transferred from the 100% DMSO serial dilution plate to an intermediate plate containing 47.5 μL of DMEM Assay Medium containing 2% FBS, 100 IU/mL penicillin, and 100 μg/mL streptomycin and mixed. To reduce or eliminate the interference from the compound's precipitation, 6 μL of the diluted compound was immediately transferred to the assay plate to achieve a high compound concentration of 100 μM in 99% DMEM Assay Medium and 1% DMSO. After the assay plates were incubated for 2 hrs, 4 μL of 112.5 μM thapsigargin (TG) (DMSO stock diluted into Assay TC Medium) was dispensed into each testing well with a MultiDrop Combi reagent broadcaster for a final concentration of about 15 μM TG. The tissue culture media (4 μL) containing vehicle only was transferred manually to each control cell using a 16 channel electronic pipette. After the plates were incubated overnight (about 16 to 24 hrs), CELLTITER-GLO® (Promega) (16 μL) was added to all wells and luminescence was measured. High luminescence indicates cell survival. The biological results are summarized in Table 1 where A represents a cell viability EC50 less than 10 μM and B represents a value greater than or equal to 10 μM and less than 20 μM.

SERCA = target: T1, SERCA (Homo sapiens, UniProt P16615); test: Ca-ATPase assay (NADH-linked, enzyme-coupled ATPase assay); format: biochemical; conditions: microsomal preparations from HEK 293 cells, Vmax from Hill fit of ATPase calcium-dependence
T1 construct: microsomal preparations from HEK 293 cells; endogenous in cells; host or cells: HEK 293 cells (microsomal preparation)
Protocol: A Ca-ATPase assay was performed using microsomal preparations from HEK 293 cells at a series of calcium concentrations corresponding to the physiological range, relative to controls. The ATP hydrolysis rate was measured over a range of calcium concentrations in the presence of test compounds using an NADH-linked, enzyme-coupled ATPase assay adapted for 96-well microplates, with Vmax determined by fitting the ATPase calcium-dependence to the Hill function. Each well contained 2 μg or 7 μg of SR vesicles (optimized for skeletal or cardiac SR, respectively), 50 mM MOPS (pH 7.0), 100 mM KCl, 5 mM MgCl2, 1 mM EGTA, 0.2 mM NADH, 1 mM phosphoenol pyruvate, 5 IU pyruvate kinase, 5 IU lactate dehydrogenase, and 3.5 μg/mL A23187 (a calcium ionophore). CaCl2 was added to set free [Ca^2+] to the specific values. The assay was started upon addition of ATP at a final concentration of 5 mM, and read in a SpectraMax Plus microplate spectrophotometer. The results are summarized in Table 4, where A represents an increase in SERCA Vmax greater than 50% and B represents a value greater than 10% and less than or equal to 50%.

Ob/ob mice = test: Effect of a SERCA agonist on the level of blood glucose; format: in vivo; conditions: Mus musculus, ip, 96 h, 50 mg/kg i.p. once a day for 5 days, fasting glucose 4 days after administration vs baseline, read-out: Glucose level reduction
Protocol: Ob/ob mice (10 weeks old, n=7) were intraperitoneally (i.p.) injected with 100 μL of a solution containing 0 (vehicle) or 50 mg/kg of a test compound once a day for a total of 5 days. Fasting glucose was measured at baseline and 4 days after the administration of the test compound. Glucose levels were measured in blood samples drawn from the tail vein using a handheld glucose sensor. Compound effects on blood glucose are shown in Table 5 where A represents a 10-20% reduction in blood glucose, B represents a 21-30% reduction in blood glucose, and C represents a greater than 30% reduction in blood glucose levels.

HEK293 cells; N2a cells = test: Cell rescue assay: protection against thapsigargin (TG)-induced cell-death (AlamarBlue); format: cell-based, Human (HEK293); Mouse (N2a); conditions: Homo sapiens; compound at 20 μM, 2 hrs before thapsigargin (15 μM HEK293, 1 μM N2a), 24 hrs, viability as % RFU of control; read-out: Cell Survival %
Protocol: Protection against Thapsigargin (TG)-induced Cell-death. Human embryonic kidney (HEK293) cells were grown in Dulbecco's Modified Eagle's Medium (DMEM) with 10% FBS and 1% antibiotic antimycotic solution (ABAM). Mouse neuroblastoma (N2a) cells were grown in 1:1 DMIEM:OPTI-MIEM® with 5% FBS and 1% ABAM. All cells were grown in 10% CO2 in a humidified environment of the incubator. Cells grown in 96-well plates were exposed to a test compound (20 μM) for 2 hrs before addition of thapsigargin (15 μM for HEK293 cells and 1 μM for N2a cells) to induce ER stress. After incubation in cell-culture incubator for 24 hrs, ALAMARBLUE® regent (10% v/v) was added to the wells. Fluorescence reading was taken 2 hrs after the addition of the ALAMARBLUE® regent. Cell-viability was calculated as a percentage of relative fluorescence unit (RFU) compared to control. […] The biological results are summarized in Table 2, where each compound was tested at 20 μM and where A represents a viability greater than 50%, B represents a viability greather than 10% and less than or equal to 50%, C represents a value equal to or below 10% and greater than 1%.

T1 sequence (P16615 whole entry): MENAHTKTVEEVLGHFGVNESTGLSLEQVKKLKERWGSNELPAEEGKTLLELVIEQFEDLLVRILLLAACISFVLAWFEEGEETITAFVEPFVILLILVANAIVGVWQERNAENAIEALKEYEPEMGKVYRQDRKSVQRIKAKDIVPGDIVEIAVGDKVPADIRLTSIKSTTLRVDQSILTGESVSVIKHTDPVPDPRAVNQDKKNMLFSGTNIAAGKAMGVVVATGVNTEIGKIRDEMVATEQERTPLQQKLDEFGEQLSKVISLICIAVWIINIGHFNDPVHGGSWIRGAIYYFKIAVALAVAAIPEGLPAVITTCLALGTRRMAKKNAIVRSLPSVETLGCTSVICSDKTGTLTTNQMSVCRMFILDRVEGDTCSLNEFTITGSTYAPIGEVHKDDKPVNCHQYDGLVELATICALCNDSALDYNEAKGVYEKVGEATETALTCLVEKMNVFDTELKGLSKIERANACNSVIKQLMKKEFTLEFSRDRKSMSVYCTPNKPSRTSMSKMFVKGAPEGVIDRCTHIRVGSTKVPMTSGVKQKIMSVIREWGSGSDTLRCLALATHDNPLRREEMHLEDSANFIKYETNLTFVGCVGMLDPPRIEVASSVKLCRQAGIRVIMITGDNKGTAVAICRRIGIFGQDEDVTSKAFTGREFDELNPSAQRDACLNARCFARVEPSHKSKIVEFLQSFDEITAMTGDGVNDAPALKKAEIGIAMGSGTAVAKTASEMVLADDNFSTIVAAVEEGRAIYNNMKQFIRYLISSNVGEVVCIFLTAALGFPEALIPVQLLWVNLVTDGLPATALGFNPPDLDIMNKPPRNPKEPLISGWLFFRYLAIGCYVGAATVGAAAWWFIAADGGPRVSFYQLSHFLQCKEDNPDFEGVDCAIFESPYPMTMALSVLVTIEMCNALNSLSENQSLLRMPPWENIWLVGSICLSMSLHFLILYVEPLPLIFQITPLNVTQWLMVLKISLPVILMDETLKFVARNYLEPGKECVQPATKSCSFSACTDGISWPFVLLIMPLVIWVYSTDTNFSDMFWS

Compound | viability at 7.5 µM (SH-SY5Y cells) [%] | pEC50 (CSM14.1 neuronal cells) | SERCA Vmax Increase (SERCA) | inhibition in vivo at 50 mg/kg (Ob/ob mice) [%] | viability at 20 µM (HEK293 cells; N2a cells) [%]
Cc1ccc2cccc(NS(=O)(=O)c3ccc(OC(C)C)cc3)c2n1 [D1, 4-Isopropoxy-N-(2-methylquinolin-8-yl)benzenesulfonamide] | > 50 | > 5.00 | B (B represents a value greater than 10% and less than or equal to 50%) | > 30 | > 50
CCOc1ccc(S(=O)(=O)Nc2cccc3ccc(C)nc23)cc1 [D2, 4-Ethoxy-N-(2-methylquinolin-8-yl)benzenesulfonamide] | > 50 | > 5.00 | A (A represents an increase in SERCA Vmax greater than 50%) | > 30 | 10 to 50
COc1c(C)cccc1S(=O)(=O)Nc1cccc2ccc(C)nc12 [D3, 2-Methoxy-3-methyl-N-(2-methylquinolin-8-yl)benzenesulfonamide] | 10 to 50 | 4.70 to 5.00 | A (A represents an increase in SERCA Vmax greater than 50%) | 10 to 20 | 10 to 50
Cc1ccc2cccc(NS(=O)(=O)c3cc4ccccc4s3)c2n1 [D4, N-(2-Methylquinolin-8-yl)benzo[b]thiophene-2-sulfonamide] | 10 to 50 | 4.70 to 5.00 | B (B represents a value greater than 10% and less than or equal to 50%) | > 30 | > 50
Cc1ccc2cccc(NS(=O)(=O)c3ccc(C(F)(F)F)cc3)c2n1 [D5, 4-Trifluoromethyl-N-(2-methylquinolin-8-yl)benzenesulfonamide] | 10 to 50 | > 5.00 | A (A represents an increase in SERCA Vmax greater than 50%) | 21 to 30 | > 50
Cc1ccc2cccc(NS(=O)(=O)c3ccc(C#N)cc3)c2n1 [D6, 4-Cyano-N-(2-methylquinolin-8-yl)benzenesulfonamide] | 1 to 10 | 4.70 to 5.00 | A (A represents an increase in SERCA Vmax greater than 50%) | 21 to 30 | 10 to 50
Cc1ccc2cccc(NS(=O)(=O)c3ccc(N(C)C)cc3)c2n1 [D7, 4-Dimethylamino-N-(2-methylquinolin-8-yl)benzenesulfonamide] | 1 to 10 | 4.70 to 5.00 | B (B represents a value greater than 10% and less than or equal to 50%) | 21 to 30 | 10 to 50
Cc1ccc2cccc(NS(=O)(=O)c3cc(Br)cs3)c2n1 [D8, 4-Bromo-N-(2-methylquinolin-8-yl)thiophene-2-sulfonamide] | 10 to 50 | 4.70 to 5.00 | B (B represents a value greater than 10% and less than or equal to 50%) | > 30 | > 50
Cc1ccc2cccc(NS(=O)(=O)c3ccc(C)o3)c2n1 [D9, 5-Methyl-N-(2-methylquinolin-8-yl)furan-2-sulfonamide] | 10 to 50 | 4.70 to 5.00 | B (B represents a value greater than 10% and less than or equal to 50%) | 10 to 20 | 10 to 50
Cc1ccc2cccc(NS(=O)(=O)c3ccc(C(C)(C)C)cc3)c2n1 [D10, 4-(tent-Butyl)-N-(2-methylquinolin-8-yl)benzenesulfonamide] | 10 to 50 | 4.70 to 5.00 | A (A represents an increase in SERCA Vmax greater than 50%) | 21 to 30 | 10 to 50
